Results as given in patent US10844354B2, “Cardiomyocyte maturation” (Ncardia B.V., priority 2014, dated 2020).

Test system: stem-cell derived cardiomyocytes
Assay: Perforated patch clamp action potential measurement of spontaneously beating stem-cell derived cardiomyocytes
Assay type: cell-based, human
Conditions: induced pluripotent stem cell derived cardiomyocytes
Description: Differentiated (fetal-like/immature) human stem-cell derived cardiomyocytes were subsequently cultured and allowed to mature as described below, although any other method in the art may suitable be used. Tissue culture plastic was coated using Matrigel (Corning) at a concentration of 1/100 in DMEM, for 45 min at room temperature. A single cell suspension coming from dissociated embryoid bodies, dissociated monolayers or (commercially obtained) frozen (fetal-like (immature)) stem-cell derived cardiomyocytes were seeded at an appropriate density on matrigel coated tissue culture plastic (e.g. in 20-40 k cells per well of a 96-well plate, e.g. 20-200 k per well of a 12 well plate). On day 1 following plating, the foetal-like (immature) cardiomyocytes were exposed to a culture medium composition of the invention, which consists of a serum-free culture medium composition comprising 50 ng/ml of T3 (Sigma T6397), 2 mM of carnitine, 5 mM of creatine, 5 mM of taurine, 2.2 microgram/ml of cholesterol, 0.1 microgram/ml of linoleic acid, 0.1 microgram/ml of linolenic acid, 0.1 microgram/ml of palmitic acid (lipids, for example, from Gibco 11905), 10 mg/ml of insulin, 5.5 mg/ml of transferrin, 0.0067 mg/ml of selenium (insulin, transferrin and selenium from e.g. Gibco 51500), 0.01% of trace element mix B (as described herein; Cellgro 99-175-CL), 0.1% of trace element mix C (as described herein; Cellgro 99-176-CL), 0.5 w/w % of antibiotics (penicillin-streptomycin mixture commercially available Gibco (Gibco 12070; 5000 U/ML), 0.05 mg/ml ascorbic acid, 2 mM of Glutamax supplement (i.e. L-alanyl-L-glutamine dipeptide in 0.85% NaCl, commercially available at Gibco, e.g. Gibco 35050), 0.125 w/w % polyvinylalcohol (PVA), 450 nM of alpha monothiolglycerol (MTG) (commercially available), 025 w/w %/o BSA (Bovostar BSAS1.0) in 46.5% (w/w) IMDM (Gibco 21056) and 46.5% (w/w) HAM F-12 with glutamax (Gibco 31765). All concentrations are expressed as final concentration in the culture medium composition. This step was repeated every 2-3 days. In those experiments that also use thyroid hormone or a thyroid hormone analog, treatment with the culture medium composition as taught herein comprising e.g. T3 started either at day 1, day 3 or day 7 post plating.
At day 10 dbcAMP was added to a final concentration of 0.5 mM and the cell were further cultured. Action potential measurements of control and dbcAMP treated cells were performed using the patch clamp technique at 24, 48 and 72-hours post addition of the cAMP-raising compound.
Electrophysiology of the cells treated with the cAMP-raising compound or not was determined by standard techniques in the art, in particular with the method as described by for example, Bellin et al. (EMBO J. 2013; 32(24): 3161-3175), with the modification that in the examples provide herein spontaneous activity of the stem-cell derived cardiomyocytes was determined and no electric stimulation was required, although measurement may, as the skilled person knows, also be done under conditions of stimulation. Action potentials from small groups of cells (5-10 cells) were measured with the perforated patch clamp technique using an Axopatch 200b amplifier (Molecular Devices) and low resistance patch pipettes (1.5-2.5 MΩ). Data acquisition and analyses of action potentials were performed with pClamp 10 (axon instruments) and custom made software. Action Potentials were corrected for the calculated liquid junction potential (−15 mV).
Action potential from spontaneous beating cells were measured at 37±0.20 C using a modified Tyrode's solution containing (in mM): 140 NaCl, 5.4 KCl, 1.8 CaCl2, 1.0 MgCl2, 5.5 glucose, 5.0 HEPES; pH7.2 (NaOH).
The pipette solution contained (in mM): 125 K-gluconate, 20 KCl, 5 NaCl, 0.22 amphotericin-B, 10 HEPES; pH 7.2 (KOH). […]

Compound: CCCC(=O)Nc1ncnc2c1ncn2[C@@H]1O[C@@H]2COP(=O)(O)O[C@H]2[C@H]1OC(=O)CCC [dbcAMP, N6,2′-O-dibutyryladenosine 3′,5′-cyclic monophosphate]
- upstroke velocity (0.5 mM dbcAMP for 24, 48 and 72 hrs vs non-treated, FIG. 1): improved the upstroke velocity dramatically
- resting membrane potential (liquid junction potential corrected) (0.5 mM dbcAMP for 24, 48 and 72 hrs vs non-treated, FIG. 2): improved the resting membrane potential dramatically
- representative action potentials (dbcAMP for 24, 48 and 72 hrs vs non-treated, FIG. 3): action potentials that are more adult cardiomyocyte like
- amplitude (dbcAMP for 24, 48 and 72 hrs vs non-treated, FIG. 4): improves the amplitude
- repolarization parameters (dbcAMP for 24, 48 and 72 hrs vs non-treated, FIG. 5): improves the repolarization parameters
- representative action potentials (dbcAMP for 72 hrs vs non-treated, FIG. 6): action potentials that are more adult cardiomyocyte like
